Assays:
Rhesus monkey [1] = experiment: Drug level in monkey plasma treated with [14C]rivoglitazone assessed as ratio of molar basis AUC (0 to t) at 1 mg/kg, po administered via gavage by LC-MS/MS analysis; type: ADME, organism-based, Macaca mulatta; design: dose 1 mg/kg, dosed compound name [14C]Rivoglitazone, route oral; conditions: in vivo
[2] = Drug excretion in F344/DuCrlCrlj rat urine/bile treated with [14C]rivoglitazone at 1 mg/kg, po administered via gavage measured during 0 to 48 hrs by radio-HPLC analysis; type: ADME, organism-based; design: dose 1 mg/kg, dosed compound name [14C]Rivoglitazone, route oral; conditions: in vivo
Rattus norvegicus [3] = experiment: Drug level in F344/DuCrlCrlj rat plasma treated with [14C]rivoglitazone at 1 to 5 mg/kg, po administered as single dose via gavage by LC-MS/MS analysis; type: ADME, organism-based; design: dose 1-5 mg/kg, dosed compound name [14C]Rivoglitazone, route oral; conditions: in vivo
[4] = Drug excretion in F344/DuCrlCrlj rat urine treated with [14C]rivoglitazone at 1 mg/kg, po administered via gavage measured during 0 to 48 hrs by radio-HPLC analysis; type: ADME, organism-based; design: dose 1 mg/kg, dosed compound name [14C]Rivoglitazone, route oral; conditions: in vivo
[5] = Drug excretion in F344/DuCrlCrlj rat feces treated with [14C]rivoglitazone at 1 mg/kg, po administered via gavage measured during 0 to 48 hrs by radio-HPLC analysis; type: ADME, organism-based; design: dose 1 mg/kg, dosed compound name [14C]Rivoglitazone, route oral; conditions: in vivo
[6] = Retention time of the compound by LC-MS/MS analysis; type: physicochemical; design: dosed compound name [14C]Rivoglitazone
Rattus norvegicus [7] = experiment: Drug level in F344/DuCrlCrlj rat plasma treated with [14C]rivoglitazone assessed as ratio of molar basis AUC (0 to t) at 1 mg/kg, po administered via gavage by LC-MS/MS analysis; type: ADME, organism-based; design: dose 1 mg/kg, dosed compound name [14C]Rivoglitazone, route oral; conditions: in vivo
[8] = Drug excretion in F344/DuCrlCrlj rat urine/feces treated with [14C]rivoglitazone at 1 mg/kg, po administered via gavage measured during 0 to 48 hrs by radio-HPLC analysis; type: ADME, organism-based; design: dose 1 mg/kg, dosed compound name [14C]Rivoglitazone, route oral; conditions: in vivo
[9] = Drug excretion in F344/DuCrlCrlj rat bile treated with [14C]rivoglitazone at 1 mg/kg, po administered via gavage measured during 0 to 48 hrs by radio-HPLC analysis; type: ADME, organism-based; design: dose 1 mg/kg, dosed compound name [14C]Rivoglitazone, route oral; conditions: in vivo
[10] = Drug excretion in monkey feces at 1 mg/kg, po administered via gavage measured during 0 to 48 hrs by liquid scintillation counting; type: ADME, organism-based, Macaca mulatta; design: dose 1 mg/kg, dosed compound name [14C]Rivoglitazone, route oral; conditions: rhesus monkey, in vivo
Rhesus monkey [11] = experiment: Total drug excretion in monkey at 1 mg/kg, po administered via gavage measured during 0 to 48 hrs by liquid scintillation counting; type: ADME, organism-based, Macaca mulatta; design: dose 1 mg/kg, dosed compound name [14C]Rivoglitazone, route oral; conditions: in vivo
Rhesus monkey [12] = experiment: Total drug excretion in monkey at 1 mg/kg, po administered via gavage measured during 0 to 168 hrs by liquid scintillation counting; type: ADME, organism-based, Macaca mulatta; design: dose 1 mg/kg, dosed compound name [14C]Rivoglitazone, route oral; conditions: in vivo
[13] = Drug excretion in F344/DuCrlCrlj rat feces at 1 mg/kg, iv administered via tail vein measured during 0 to 168 hrs by liquid scintillation counting; type: ADME, organism-based; design: dose 1 mg/kg, dosed compound name [14C]Rivoglitazone, route intravenous; conditions: in vivo
Rattus norvegicus [14] = experiment: Total drug excretion in F344/DuCrlCrlj rat at 1 mg/kg, po administered via gavage measured during 0 to 48 hrs by liquid scintillation counting; type: ADME, organism-based; design: dose 1 mg/kg, dosed compound name [14C]Rivoglitazone, route oral; conditions: in vivo
Rattus norvegicus [15] = experiment: Drug excretion in bile duct-cannulated rat cage wash at 0.5 mg/kg, iv administered via tail vein measured during 0 to 48 hrs by liquid scintillation counting; type: ADME, organism-based; design: dose 0.5 mg/kg, dosed compound name [14C]Rivoglitazone, route intravenous; conditions: in vivo
[16] = Drug excretion in F344/DuCrlCrlj rat feces at 1 mg/kg, iv administered via tail vein measured during 0 to 48 hrs by liquid scintillation counting; type: ADME, organism-based; design: dose 1 mg/kg, dosed compound name [14C]Rivoglitazone, route intravenous; conditions: in vivo
[17] = Drug excretion in bile duct-cannulated rat bile at 0.5 mg/kg, iv administered via tail vein measured during 0 to 48 hrs by liquid scintillation counting; type: ADME, organism-based; design: dose 0.5 mg/kg, dosed compound name [14C]Rivoglitazone, route intravenous; conditions: in vivo
Rattus norvegicus [18] = experiment: Total drug excretion in bile duct-cannulated rat at 0.5 mg/kg, iv administered via tail vein measured during 0 to 48 hrs by liquid scintillation counting; type: ADME, organism-based; design: dose 0.5 mg/kg, dosed compound name [14C]Rivoglitazone, route intravenous; conditions: in vivo
Rhesus monkey [19] = experiment: Total drug excretion in monkey at 1 mg/kg, iv administered via tail vein measured during 0 to 48 hrs by liquid scintillation counting; type: ADME, organism-based, Macaca mulatta; design: dose 1 mg/kg, dosed compound name [14C]Rivoglitazone, route intravenous; conditions: in vivo
[20] = Drug excretion in monkey feces at 1 mg/kg, iv administered […] measured during 0 to 168 hrs by liquid scintillation counting; type: ADME, organism-based, Macaca mulatta; design: dose 1 mg/kg, dosed compound name [14C]Rivoglitazone, route intravenous; conditions: rhesus monkey, in vivo
Rattus norvegicus [21] = experiment: Total drug excretion in F344/DuCrlCrlj rat at 1 mg/kg, iv administered via tail vein measured during 0 to 168 hrs by liquid scintillation counting; type: ADME, organism-based; design: dose 1 mg/kg, dosed compound name [14C]Rivoglitazone, route intravenous; conditions: in vivo
[22] = Drug excretion in bile duct-cannulated rat feces at 0.5 mg/kg, iv administered via tail vein measured during 0 to 48 hrs by liquid scintillation counting; type: ADME, organism-based; design: dose 0.5 mg/kg, dosed compound name [14C]Rivoglitazone, route intravenous; conditions: in vivo
[23] = Drug excretion in F344/DuCrlCrlj rat urine at 1 mg/kg, iv administered via tail vein measured during 0 to 168 hrs by liquid scintillation counting; type: ADME, organism-based; design: dose 1 mg/kg, dosed compound name [14C]Rivoglitazone, route intravenous; conditions: in vivo
Rhesus monkey [24] = experiment: Drug excretion in monkey cage wash at 1 mg/kg, iv administered […] measured during 0 to 168 hrs by liquid scintillation counting; type: ADME, organism-based, Macaca mulatta; design: dose 1 mg/kg, dosed compound name [14C]Rivoglitazone, route intravenous; conditions: in vivo
[25] = Drug excretion in monkey feces at 1 mg/kg, po administered via gavage measured during 0 to 168 hrs by liquid scintillation counting; type: ADME, organism-based, Macaca mulatta; design: dose 1 mg/kg, dosed compound name [14C]Rivoglitazone, route oral; conditions: rhesus monkey, in vivo
[26] = Drug excretion in bile duct-cannulated rat bile at 0.5 mg/kg, po administered via gavage measured during 0 to 48 hrs by liquid scintillation counting; type: ADME, organism-based; design: dose 0.5 mg/kg, dosed compound name [14C]Rivoglitazone, route oral; conditions: in vivo
[27] = Drug excretion in F344/DuCrlCrlj rat urine at 1 mg/kg, po administered via gavage measured during 0 to 168 hrs by liquid scintillation counting; type: ADME, organism-based; design: dose 1 mg/kg, dosed compound name [14C]Rivoglitazone, route oral; conditions: in vivo
Rattus norvegicus [28] = experiment: Total drug excretion in bile duct-cannulated rat at 0.5 mg/kg, po administered via gavage measured during 0 to 48 hrs by liquid scintillation counting; type: ADME, organism-based; design: dose 0.5 mg/kg, dosed compound name [14C]Rivoglitazone, route oral; conditions: in vivo
[29] = Drug excretion in F344/DuCrlCrlj rat urine at 1 mg/kg, po administered via gavage measured during 0 to 48 hrs by liquid scintillation counting; type: ADME, organism-based; design: dose 1 mg/kg, dosed compound name [14C]Rivoglitazone, route oral; conditions: in vivo
[30] = Drug excretion in bile duct-cannulated rat urine at 0.5 mg/kg, po administered via gavage measured during 0 to 48 hrs by liquid scintillation counting; type: ADME, organism-based; design: dose 0.5 mg/kg, dosed compound name [14C]Rivoglitazone, route oral; conditions: in vivo
Rattus norvegicus [31] = experiment: Drug excretion in bile duct-cannulated rat cage wash at 0.5 mg/kg, po administered via gavage measured during 0 to 48 hrs by liquid scintillation counting; type: ADME, organism-based; design: dose 0.5 mg/kg, dosed compound name [14C]Rivoglitazone, route oral; conditions: in vivo
Rhesus monkey [32] = experiment: Drug excretion in monkey cage wash at 1 mg/kg, po administered via gavage measured during 0 to 168 hrs by liquid scintillation counting; type: ADME, organism-based, Macaca mulatta; design: dose 1 mg/kg, dosed compound name [14C]Rivoglitazone, route oral; conditions: in vivo
Rhesus monkey [33] = experiment: Total drug excretion in monkey at 1 mg/kg, iv administered via tail vein measured during 0 to 168 hrs by liquid scintillation counting; type: ADME, organism-based, Macaca mulatta; design: dose 1 mg/kg, dosed compound name [14C]Rivoglitazone, route intravenous; conditions: in vivo
[34] = Drug excretion in F344/DuCrlCrlj rat urine at 1 mg/kg, iv administered via tail vein measured during 0 to 48 hrs by liquid scintillation counting; type: ADME, organism-based; design: dose 1 mg/kg, dosed compound name [14C]Rivoglitazone, route intravenous; conditions: in vivo
[35] = Drug excretion in monkey urine at 1 mg/kg, po administered via gavage measured during 0 to 48 hrs by liquid scintillation counting; type: ADME, organism-based, Macaca mulatta; design: dose 1 mg/kg, dosed compound name [14C]Rivoglitazone, route oral; conditions: rhesus monkey, in vivo
[36] = Drug excretion in monkey urine at 1 mg/kg, iv administered via tail vein measured during 0 to 168 hrs by liquid scintillation counting; type: ADME, organism-based, Macaca mulatta; design: dose 1 mg/kg, dosed compound name [14C]Rivoglitazone, route intravenous; conditions: rhesus monkey, in vivo
[37] = Drug excretion in monkey urine at 1 mg/kg, iv administered via tail vein measured during 0 to 48 hrs by liquid scintillation counting; type: ADME, organism-based, Macaca mulatta; design: dose 1 mg/kg, dosed compound name [14C]Rivoglitazone, route intravenous; conditions: rhesus monkey, in vivo
[38] = Drug excretion in F344/DuCrlCrlj rat feces at 1 mg/kg, po administered via gavage measured during 0 to 168 hrs by liquid scintillation counting; type: ADME, organism-based; design: dose 1 mg/kg, dosed compound name [14C]Rivoglitazone, route oral; conditions: in vivo
[39] = Drug excretion in F344/DuCrlCrlj rat feces at 1 mg/kg, po administered via gavage measured during 0 to 48 hrs by liquid scintillation counting; type: ADME, organism-based; design: dose 1 mg/kg, dosed compound name [14C]Rivoglitazone, route oral; conditions: in vivo
[40] = Drug excretion in monkey urine at 1 mg/kg, po administered via gavage measured during 0 to 168 hrs by liquid scintillation counting; type: ADME, organism-based, Macaca mulatta; design: dose 1 mg/kg, dosed compound name [14C]Rivoglitazone, route oral; conditions: rhesus monkey, in vivo
[41] = Drug excretion in monkey feces at 1 mg/kg, iv administered […] measured during 0 to 48 hrs by liquid scintillation counting; type: ADME, organism-based, Macaca mulatta; design: dose 1 mg/kg, dosed compound name [14C]Rivoglitazone, route intravenous; conditions: rhesus monkey, in vivo
[42] = Drug excretion in bile duct-cannulated rat feces at 0.5 mg/kg, po administered via gavage measured during 0 to 48 hrs by liquid scintillation counting; type: ADME, organism-based; design: dose 0.5 mg/kg, dosed compound name [14C]Rivoglitazone, route oral; conditions: in vivo
Rattus norvegicus [43] = experiment: Total drug excretion in F344/DuCrlCrlj rat at 1 mg/kg, iv administered via tail vein measured during 0 to 48 hrs by liquid scintillation counting; type: ADME, organism-based; design: dose 1 mg/kg, dosed compound name [14C]Rivoglitazone, route intravenous; conditions: in vivo
Rattus norvegicus [44] = experiment: Total drug excretion in F344/DuCrlCrlj rat at 1 mg/kg, po administered via gavage measured during 0 to 168 hrs by liquid scintillation counting; type: ADME, organism-based; design: dose 1 mg/kg, dosed compound name [14C]Rivoglitazone, route oral; conditions: in vivo
[45] = Drug excretion in bile duct-cannulated rat urine at 0.5 mg/kg, iv administered via tail vein measured during 0 to 48 hrs by liquid scintillation counting; type: ADME, organism-based; design: dose 0.5 mg/kg, dosed compound name [14C]Rivoglitazone, route intravenous; conditions: in vivo

Cn1c(COc2ccc(CC3SC(=O)NC3=O)cc2)nc2ccc(OS(=O)(=O)O)cc21 (stereo not given)
AUCmet/AUCp (Rhesus monkey [1]): 0.64%
Compound recovery [2]: 33%
Compound recovery (Rattus norvegicus [3]): metabolite_detected
Compound recovery [4]: 10%
Compound recovery [5]: metabolite_not_detected
Retention_time [6]: 19 min
AUCmet/AUCp (Rattus norvegicus [7]): 23.4%
Compound recovery [8]: 10%
Compound recovery [9]: 23%

COc1ccc2nc(COc3ccc(C[14CH]4SC(=O)NC4=O)cc3)n(C)c2c1 (racemic)
Radiolabel recovery [10]: 24.6%
Radiolabel recovery (Rhesus monkey [11]): 54.3%
Radiolabel recovery (Rhesus monkey [12]): 90%
Radiolabel recovery [13]: 75.4%
Radiolabel recovery (Rattus norvegicus [14]): 99.1%
Radiolabel recovery (Rattus norvegicus [15]): 5.7%
Radiolabel recovery [16]: 74.2%
Radiolabel recovery [17]: 55.4%
Radiolabel recovery (Rattus norvegicus [18]): 86.5%
Radiolabel recovery (Rhesus monkey [19]): 49.7%
Radiolabel recovery [20]: 38.4%
Radiolabel recovery (Rattus norvegicus [21]): 101%
Radiolabel recovery [22]: 7%
Radiolabel recovery [23]: 25.6%
Radiolabel recovery (Rhesus monkey [24]): 0.1%
Radiolabel recovery [25]: 53%
Radiolabel recovery [26]: 37.2%
Radiolabel recovery [27]: 18.3%
Radiolabel recovery (Rattus norvegicus [28]): 81%
Radiolabel recovery [29]: 18%
Radiolabel recovery [30]: 19.9%
Radiolabel recovery (Rattus norvegicus [31]): 4.8%
Radiolabel recovery (Rhesus monkey [32]): 0.2%
Radiolabel recovery (Rhesus monkey [33]): 86%
Radiolabel recovery [34]: 25.5%
Radiolabel recovery [35]: 29.7%
Radiolabel recovery [36]: 47.4%
Radiolabel recovery [37]: 39.4%
Radiolabel recovery [38]: 82%
Radiolabel recovery [39]: 81.1%
Radiolabel recovery [40]: 36.7%
Radiolabel recovery [41]: 10.3%
Radiolabel recovery [42]: 19.1%
Radiolabel recovery (Rattus norvegicus [43]): 99.7%
Radiolabel recovery (Rattus norvegicus [44]): 100%
Radiolabel recovery [45]: 18.4%
